This note sets out measurements from patent US8735398B2 (Bristol-Myers Squibb Company, priority 2009, dated 2014).

This assay relates to HCV 1b genotype. Kind of assay: HCV replicon assay (HCV-neo replicon cells, wild-type). The class given is cell-based, Hepatitis C virus. To be noted: HCV 1b genotype replicon. In a few lines: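 HCV-neo replicon cells (wild-type) and replicon cells carrying NS5A resistance substitutions were treated with compounds; assay per O'Boyle et al. 2005, with luciferase-reporter read-out variants also used.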

Where [1] appears, read: Hepatitis C virus, class symbol, read-out: EC50 Range against HCV 1b.
Where [2] appears, read: Hepatitis C virus, read-out: EC50 1b.

Like-named read-outs stand apart in the source and are kept apart here.

Usually EC50 stands for the midpoint of the concentration-response curve. With `C[C@H](NC(=O)[C@](C)(O)c1ccccc1)C(=O)Nc1ccc(-c2cc(-c3ccc(NC(=O)[C@H](C)NC(=O)[C@](C)(O)c4ccccc4)cc3)[nH]n2)cc1` [OL-46, (2R,2′R)-N,N′-(1H-pyrazole-3,5-diylbis(4,1-phenyleneimino((2S)-1-oxo-1,2-propanediyl)))bis(2-hydroxy-2-phenylpropanamide)], the EC50 under setting [1] fell in the range of 4.57 to 99 nM.

Take `C[C@H](NC(=O)c1cc(Cl)cc2ccccc12)C(=O)Nc1ccc(-c2cc(-c3ccc(NC(=O)[C@H](C)NC(=O)c4cc(Cl)cc5ccccc45)cc3)[nH]n2)cc1` [OL-47, N,N′-(1H-pyrazole-3,5-diylbis(4,1-phenyleneimino((2S)-1-oxo-1,2-propanediyl)))bis(3-chloro-1-naphthamide)]: under setting [1], the EC50 lay within 4.57 to 99 nM.

Take `C[C@H](NC(=O)c1nc(Cl)cc2ccccc12)C(=O)Nc1ccc(-c2cc(-c3ccc(NC(=O)[C@H](C)NC(=O)c4nc(Cl)cc5ccccc45)cc3)[nH]n2)cc1` [OL-48, N,N′-(1H-pyrazole-3,5-diylbis(4,1-phenyleneimino((2S)-1-oxo-1,2-propanediyl)))bis(3-chloro-1-isoquinolinecarboxamide)]: the concentration for a half-maximal effect (EC50) is, setting by setting: under setting [1], 100 to 999 nM; under setting [2], 280 nM.

In the case of `CC(C)(C)O[C@@H]1C[C@@H](C(=O)Nc2ccc(-c3cc(-c4ccc(NC(=O)[C@@H]5C[C@@H](OC(C)(C)C)CN5C(=O)OCc5ccccc5)cc4)[nH]n3)cc2)N(C(=O)OCc2ccccc2)C1` [OL-49, dibenzyl (2S,4R,2′S,4′R)-2,2′-(1H-pyrazole-3,5-diylbis(4,1-phenylenecarbamoyl))bis(4-tert-butoxy-1-pyrrolidinecarboxylate)], the concentration for a half-maximal effect (EC50) by setting is: under setting [1], 100 to 999 nM; under setting [2], 230 nM.

Consider `O=C(Nc1ccc(-c2cnc(-c3ccc(NC(=O)[C@@H]4CCCN4C(=O)c4cccc(F)n4)cc3)o2)cc1)[C@@H]1CCCN1C(=O)c1cccc(F)n1` [OL-50, (2S,2′S)-N,N′-(1,3-oxazole-2,5-diyldi-4,1-phenylene)bis(1-((6-fluoro-2-pyridinyl)carbonyl)-2-pyrrolidinecarboxamide)], for which the concentration giving a half-maximal response (EC50) under setting [1] lay in the range of 100 to 999 nM.

For `CN(C)[C@@H](C(=O)N1CCCC1C(=O)Nc1ccc(-c2ncc(-c3ccc(NC(=O)[C@@H]4CCCN4C(=O)[C@@H](c4ccccc4)N(C)C)cc3)o2)cc1)c1ccccc1` (stereo partly drawn) [OL-51, (2S)-N,N′-(1,3-oxazole-2,5-diyldi-4,1-phenylene)bis(1-((2R)-2-(dimethylamino)-2-phenylacetyl)-2-pyrrolidinecarboxamide)], the EC50 under setting [1] is 4.57 to 99 nM.

`COc1cccc2c(C(=O)N3CCC[C@H]3C(=O)Nc3ccc(-c4cnc(-c5ccc(NC(=O)[C@@H]6CCCN6C(=O)c6nc(Cl)cc7c(OC)cccc67)cc5)o4)cc3)nc(Cl)cc12` [OL-52, (2S,2′S)-N,N′-(1,3-oxazole-2,5-diyldi-4,1-phenylene)bis(1-((3-chloro-5-methoxy-1-isoquinolinyl)carbonyl)-2-pyrrolidinecarboxamide)]: the EC50 was 100 to 999 nM under setting [1] and 30 nM under setting [2].

As for `CC(=O)N[C@@H](C(=O)N1CCCC1C(=O)Nc1ccc(-c2cnc(-c3ccc(NC(=O)C4CCCN4C(=O)[C@H](NC(C)=O)c4ccccc4)cc3)o2)cc1)c1ccccc1` (stereo partly drawn) [OL-53, N,N′-(1,3-oxazole-2,5-diyldi-4,1-phenylene)bis(1-((2R)-2-acetamido-2-phenylacetyl)-2-pyrrolidinecarboxamide)], the EC50 under setting [1] is less than 4.57 nM.

On to `C[C@H](NC(=O)[C@@H](O)c1ccccc1)C(=O)Nc1ccc(-c2cnc(-c3ccc(NC(=O)[C@H](C)NC(=O)[C@@H](O)c4ccccc4)cc3)o2)cc1` [OL-54, (2S,2′S)-N,N′-(1,3-oxazole-2,5-diyldi-4,1-phenylene)bis(2-(((2S)-2-hydroxy-2-phenylacetyl)amino)propanamide)], for which, under setting [1], the EC50 lay in the range of 4.57 to 99 nM.

Turning to `C[C@H](NC(=O)[C@H](O)c1ccccc1)C(=O)Nc1ccc(-c2cnc(-c3ccc(NC(=O)[C@H](C)NC(=O)[C@H](O)c4ccccc4)cc3)o2)cc1` [OL-55, (2S,2′S)-N,N′-(1,3-oxazole-2,5-diyldi-4,1-phenylene)bis(2-(((2R)-2-hydroxy-2-phenylacetyl)amino)propanamide)], the EC50 under setting [1] was less than 4.57 nM.

For `C[C@H](NC(=O)[C@@](C)(O)c1ccccc1)C(=O)Nc1ccc(-c2cnc(-c3ccc(NC(=O)[C@H](C)NC(=O)[C@@](C)(O)c4ccccc4)cc3)o2)cc1` [OL-56, ((2S,2′S)-N,N′-(1,3-oxazole-2,5-diylbis(4,1-phenyleneimino((2S)-1-oxo-1,2-propanediyl)))bis(2-hydroxy-2-phenylpropanamide))], under setting [1], the EC50 was less than 4.57 nM.

Consider `C[C@H](NC(=O)[C@](C)(O)c1ccccc1)C(=O)Nc1ccc(-c2cnc(-c3ccc(NC(=O)[C@H](C)NC(=O)[C@](C)(O)c4ccccc4)cc3)o2)cc1` [OL-57], for which, under “class symbol, read-out: EC50 Range against HCV 1b”, the EC50 lay within 4.57 to 99 nM.

Regarding `CO[C@H]1C[C@@H](C(=O)Nc2ccc(-c3cnc(-c4ccc(NC(=O)[C@@H]5C[C@H](OC)CN5C(=O)[C@H](O)c5ccccc5)cc4)o3)cc2)N(C(=O)[C@H](O)c2ccccc2)C1` [OL-58, (2S,4S,2′S,4′S)-N,N′-(1,3-oxazole-2,5-diyldi-4,1-phenylene)bis(1-((2R)-2-hydroxy-2-phenylacetyl)-4-methoxy-2-pyrrolidinecarboxamide)], under setting [1], the EC50 is less than 4.57 nM.

Consider `CO[C@H]1C[C@@H](C(=O)Nc2ccc(-c3cnc(-c4ccc(NC(=O)[C@@H]5C[C@H](OC)CN5C(=O)[C@@H](c5ccccc5)N(C)C)cc4)o3)cc2)N(C(=O)[C@@H](c2ccccc2)N(C)C)C1` [OL-59, (2S,4S,2′S,4′S)-N,N′-(1,3-oxazole-2,5-diyldi-4,1-phenylene)bis(1-((2R)-2-(dimethylamino)-2-phenylacetyl)-4-methoxy-2-pyrrolidinecarboxamide)], for which the EC50 under setting [1] is less than 4.57 nM.

Regarding `CO[C@H]1C[C@@H](C(=O)Nc2ccc(-c3cnc(-c4ccc(NC(=O)[C@@H]5C[C@H](OC)CN5C(=O)C(NC(C)=O)c5ccccc5)cc4)o3)cc2)N(C(=O)C(NC(C)=O)c2ccccc2)C1` (stereo partly drawn) [OL-60, (2S,4S,2′S,4′S)-N,N′-(1,3-oxazole-2,5-diyldi-4,1-phenylene)bis(1-(acetamido(phenyl)acetyl)-4-methoxy-2-pyrrolidinecarboxamide)], the EC50 under setting [1] fell in the range of 4.57 to 99 nM.

Turning to `COc1cccc2c(C(=O)N3CCC[C@H]3C(=O)Nc3ccc(-c4cnc(-c5ccc(NC(=O)[C@@H]6CCCN6C(=O)[C@@H](c6ccccc6)N(C)C)cc5)o4)cc3)nc(Cl)cc12` [OL-61, (2S)-1-((3-chloro-5-methoxy-1-isoquinolinyl)carbonyl)-N-(4-(2-(4-((((2S)-1-((2R)-2-(dimethylamino)-2-phenylacetyl)-2-pyrrolidinyl)carbonyl)amino)phenyl)-1,3-oxazol-5-yl)phenyl)-2-pyrrolidinecarboxamide], under setting [1], the EC50 fell in the range of 4.57 to 99 nM.

As for `O=C(Nc1ccc(-c2nnc(-c3ccc(NC(=O)[C@@H]4CCC(=O)N4C(=O)OCc4ccccc4)cc3)o2)cc1)[C@@H]1CCC(=O)N1C(=O)OCc1ccccc1` [RK-2, dibenzyl (2S,2′S)-2,2′-(1,3,4-oxadiazole-2,5-diylbis(4,1-phenylenecarbamoyl))bis(5-oxo-1-pyrrolidinecarboxylate)], the EC50 under setting [1] lay in the range of 1000 to 10000 nM.

For the compound `O=C(Nc1ccc(-c2nnc(-c3ccc(NC(=O)C4CCCN4C(=O)Cc4ccccc4)cc3)o2)cc1)C1CCCN1C(=O)Cc1ccccc1` (centres unmarked) [RK-3, N,N′-(1,3,4-oxadiazole-2,5-diyldi-4,1-phenylene)bis(1-(phenylacetyl)-2-pyrrolidinecarboxamide)], the EC50 under setting [1] fell in the range of 100 to 999 nM.

With `O=C(Nc1ccc(-c2nnc(-c3ccc(NC(=O)[C@@H]4CCCCN4C(=O)OCc4ccccc4)cc3)o2)cc1)[C@@H]1CCCCN1C(=O)OCc1ccccc1` [RK-4, dibenzyl (2S,2′S)-2,2′-(1,3,4-oxadiazole-2,5-diylbis(4,1-phenylenecarbamoyl))di(1-piperidinecarboxylate)], the EC50 under setting [1] fell in the range of 100 to 999 nM.

As to `O=C(Nc1ccc(-c2nnc(-c3ccc(NC(=O)[C@H]4CCCCN4C(=O)OCc4ccccc4)cc3)o2)cc1)[C@H]1CCCCN1C(=O)OCc1ccccc1` [RK-5, dibenzyl (2R,2′R)-2,2′-(1,3,4-oxadiazole-2,5-diylbis(4,1-phenylenecarbamoyl))di(1-piperidinecarboxylate)], the EC50 under setting [1] lay in the range of 1000 to 10000 nM.

Consider `COc1ccccc1C(=O)N1CCC[C@H]1C(=O)Nc1ccc(-c2nnc(-c3ccc(NC(=O)[C@@H]4CCCN4C(=O)c4ccccc4OC)cc3)o2)cc1` [RK-6, (2S,2′S)-N,N′-(1,3,4-oxadiazole-2,5-diyldi-4,1-phenylene)bis(1-(2-methoxybenzoyl)-2-pyrrolidinecarboxamide)], for which the EC50 under setting [1] lay in the range of 100 to 999 nM.

Consider `COc1cccc(C(=O)N2CCC[C@H]2C(=O)Nc2ccc(-c3nnc(-c4ccc(NC(=O)[C@@H]5CCCN5C(=O)c5cccc(OC)c5)cc4)o3)cc2)c1` [RK-7, (2S,2′S)-N,N′-(1,3,4-oxadiazole-2,5-diyldi-4,1-phenylene)bis(1-(3-methoxybenzoyl)-2-pyrrolidinecarboxamide)], for which the EC50 under setting [1] was in the range of 100 to 999 nM.

On to `CCOc1ccccc1C(=O)N1CCC[C@H]1C(=O)Nc1ccc(-c2nnc(-c3ccc(NC(=O)[C@@H]4CCCN4C(=O)c4ccccc4OCC)cc3)o2)cc1` [RK-8, (2S,2′S)-N,N′-(1,3,4-oxadiazole-2,5-diyldi-4,1-phenylene)bis(1-(2-ethoxybenzoyl)-2-pyrrolidinecarboxamide)], for which the EC50 by setting is: under setting [1], 1000 to 10000 nM; under setting [2], 1850 nM.

Regarding `CCc1ccccc1C(=O)N1CCC[C@H]1C(=O)Nc1ccc(-c2nnc(-c3ccc(NC(=O)[C@@H]4CCCN4C(=O)c4ccccc4CC)cc3)o2)cc1` [RK-9, (2S,2′S)-N,N′-(1,3,4-oxadiazole-2,5-diyldi-4,1-phenylene)bis(1-(2-ethylbenzoyl)-2-pyrrolidinecarboxamide)], the EC50 under setting [1] fell in the range of 100 to 999 nM.

In the case of `O=C(Nc1ccc(-c2nnc(-c3ccc(NC(=O)[C@@H]4CCCN4C(=O)c4ccc5ccccc5n4)cc3)o2)cc1)[C@@H]1CCCN1C(=O)c1ccc2ccccc2n1` [RK-10, (2S,2′S)-N,N′-(1,3,4-oxadiazole-2,5-diyldi-4,1-phenylene)bis(1-(2-quinolinylcarbonyl)-2-pyrrolidinecarboxamide)], the EC50 under setting [1] was 1000 to 10000 nM.
